# What was measured:
# [1] = tested on: Mouse fibrosarcoma (Meth A); experiment: Antitumor effect due to administration of a drug three times, Meth A; type: in vivo; conditions: Meth A in BALB/c mouse; for Inhibition rate (%) / Tumor weight (g, mean ± S.D.): 21 days from transplantation
# Method: Mouse fibrosarcoma (Meth A), 2.5×10^5 cells/mouse were transplanted subcutaneously in an inguinal region of a mouse (BALB/c, female, 7 weeks old, CLEA Japan, Inc.). […] Mice without injection of either agent were employed as a control group.
# The tumors were also removed after 21 days from the transplantation and weight of the tumors was measured, to thereby calculate each tumor proliferation inhibition rate, I.R. (%) by the formula as shown in Test Example 6.
# [2] = tested on: human colon cancer cells (HCT116); experiment: Antitumor effect, human colon cancer HCT116 implanted in mouse; type: in vivo; conditions: HCT116 in BALB/c nude mouse; for Inhibition rate (%) / Tumor weight (g, mean ± S.D.): 21 days after injection
# Method: 2×10^6 cells/mouse of human colon cancer cells (HCT116) were implanted subcutaneously in left inguinal region of the mouse (BALB/c nude, ♂, 6 weeks old, Charles River Japan, Inc.). After implanting tumors, a presumptive tumor volume was calculated by ½·ab^2 (a represents a longitudinal diameter of a tumor and b represents a short axis diameter thereof) achieved to about 90 mm^3 in a day (Day 0). […] There were mice without injection of either agent as a control group.
# A presumptive tumor volume and a body weight of a mouse were measured after 5, 8, 12, 16, and 21 days from the injection. Extracting tumors 21 days after the injection and measuring a weight thereof, further, an inhibition rate of tumor growth I.R. (%) was calculated by the formula as shown in Test Example 6.
# [3] = 50 mg/kg i.v., treatment on days 7, 9, 11
# [4] = 50 mg/kg i.v., treatment on days 7, 11, 15
# [5] = 100 mg/kg i.v., treatment on days 7, 9, 11
# [6] = 100 mg/kg i.v., treatment on days 7, 11, 15
smiles,measurement,setting,value
"CCc1c2c(nc3ccc(OC(=O)N4CCC(N5CCCCC5)CC4)cc13)-c1cc3c(c(=O)n1C2)COC(=O)[C@]3(O)CC [(+)-(4S)-4,11-diethyl-4-hydroxy-9-[(4-piperidino-piperidino)carbonyloxy]-1H-pyrano[3′,4′:6,7]indolizino[1,2-b]quinolin-3,14(4H,12H)-dione]",Inhibition rate (%),[1]; [3],26.9%
same,"Tumor weight (g, mean ± S.D.)",[1]; [3],1.47 ± 0.18 g
same,Inhibition rate (%),[1]; [4],1.0%
same,"Tumor weight (g, mean ± S.D.)",[1]; [4],1.99 ± 0.47 g
same,Inhibition rate (%),[1]; [5],86.0%
same,"Tumor weight (g, mean ± S.D.)",[1]; [5],0.28 ± 0.42 g
same,Inhibition rate (%),[1]; [6],37.4%
same,"Tumor weight (g, mean ± S.D.)",[1]; [6],1.26 ± 0.49 g
same,effect on body weight of the mouse,[1]; 50-100 mg/kg i.v. three times,didn't affect the body weight of the mouse
same,tumor proliferation compared to the control group,[1]; three administrations,significant tumor proliferation inhibitory effect
same,tumor growth compared to the control group,[2],significant suppressive effect of tumor growth
same,Inhibition rate (%),"[2]; 18.75 mg/kg i.v. Days 1, 5, 9",39.0%
same,"Tumor weight (g, mean ± S.D.)","[2]; 18.75 mg/kg i.v. Days 1, 5, 9",0.76 ± 0.06 g
same,Inhibition rate (%),"[2]; 37.5 mg/kg i.v. Days 1, 5, 9",43.4%
same,"Tumor weight (g, mean ± S.D.)","[2]; 37.5 mg/kg i.v. Days 1, 5, 9",0.71 ± 0.08 g
same,Inhibition rate (%),"[2]; 75 mg/kg i.v. Days 1, 5, 9",57.4%
same,"Tumor weight (g, mean ± S.D.)","[2]; 75 mg/kg i.v. Days 1, 5, 9",0.53 ± 0.14 g
same,influence on body weight of the mouse,"[2]; 18.75-75 mg/kg i.v. Days 1, 5, 9",did not influence the body weight of the mouse
